Source: US9982005B2, “Macrolides and methods of their preparation and use” (President and Fellows of Harvard College, priority 2013, dated 2018)
In brackets after ≈: the same amount, converted by molar mass. Read-outs that look alike come from different tables or passages of the source.

Columns and labels:
Assay type in all cases: cell-based
[1] = test system: SA557 S. aureus ermA unknown msrA positive; experiment: broth dilution MIC, S. aureus SA557; settings: Staphylococcus aureus; SA557 S. aureus ermA unknown msrA positive; read-out: MIC
Excerpt: (§1) We have collected MIC data for a total of 50 novel macrolides that this platform has produced against over 21 unique strains of B. subtilis, E. coli, S. aureus, S. pneumoniae, and H. influenzae, including several multidrug-resistant strains, with a special focus on macrolide resistant mechanisms (vide supra). Azithromycin was included as a control macrolide. CLSI standard procedures for broth dilution MIC determination were used. […] These genotypes can be constitutive or inducible. The finding that C4-epi (unnatural) isomers of the “azaketolide” macrolide class have enhanced activities relative to C4 natural isomers is very exciting.

[2] = test system: SA418 S. aureus ermA negative msrA positive; experiment: broth dilution MIC, S. aureus SA418; settings: Staphylococcus aureus
Excerpt: as §1

[3] = test system: Spn 106 S. pneumonia ATCC49619; experiment: broth dilution MIC, S. pneumoniae Spn 106; settings: Streptococcus pneumoniae; Spn 106 S. pneumonia ATCC49619; read-out: MIC
Excerpt: as §1

BS1725 B. subtilis ermC = experiment: broth dilution MIC, B. subtilis BS1725; settings: Bacillus subtilis, BS1725 B. subtilis ermC (+ery)
Procedure, shortened: (§2)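 Read-out is the minimum inhibitory concentration, obtained by broth dilution per CLSI standards. The strain panel included multidrug-resistant isolates carrying macrolide-resistance genotypes, which may be constitutive or inducible.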

HI281 H. influenzae = experiment: broth dilution MIC, H. influenzae HI281; settings: Haemophilus influenzae
Excerpt: as §1

[4] = test system: SA101 S. aureus ATCC29213; experiment: broth dilution MIC, S. aureus SA101; settings: Staphylococcus aureus, ATCC29213, SA101 S. aureus ATCC29213; read-out: MIC
Procedure, shortened: as §2

[5] = test system: SA1708 S. aureus ermA positive msrA negative; experiment: broth dilution MIC, S. aureus SA1708; settings: Staphylococcus aureus
Excerpt: as §1

EC107 E. coli ATCC25922 = experiment: broth dilution MIC, E. coli EC107; settings: Escherichia coli, read-out: MIC
Procedure, shortened: as §2

[6] = test system: Spn1537 S. pneumoniae ermB positive mefA positive; experiment: broth dilution MIC, S. pneumoniae Spn1537; settings: Streptococcus pneumoniae
Excerpt: as §1

EC878 E. coli tolC = experiment: broth dilution MIC, E. coli EC878; settings: Escherichia coli
Procedure, shortened: as §2

[7] = test system: Spn160 S. pneumoniae ermB unknown mefA positive; experiment: broth dilution MIC, S. pneumoniae Spn160; settings: Streptococcus pneumoniae
Excerpt: as §1

[8] = test system: BS1723 B. subtilis BS168 WT wild type; experiment: broth dilution MIC, B. subtilis BS1723; settings: Bacillus subtilis, BS1723 B. subtilis BS168 WT wild type; read-out: MIC
Procedure, shortened: as §2

EC882 E. coli imp = experiment: broth dilution MIC, E. coli EC882
Procedure, shortened: as §2

[9] = test system: HI175 H. influenzae ATCC49247; experiment: broth dilution MIC, H. influenzae HI175; settings: Haemophilus influenzae
Excerpt: as §1

[10] = test system: Spn1533 S. pneumoniae ermB positive mefA positive; experiment: broth dilution MIC, S. pneumoniae Spn1533; settings: Streptococcus pneumoniae
Excerpt: as §1

[11] = test system: SA1707 S. aureus ermA negative msrA positive; experiment: broth dilution MIC, S. aureus SA1707; settings: Staphylococcus aureus
Excerpt: as §1

[12] = test system: Spn1509 S. pneumoniae ermB positive mefA negative; experiment: broth dilution MIC, S. pneumoniae Spn1509; settings: Streptococcus pneumoniae; Spn1509 S. pneumoniae ermB positive mefA negative; read-out: MIC
Excerpt: as §1

[13] = test system: SA183 S. aureus ermA positive msrA unknown; experiment: broth dilution MIC, S. aureus SA183; settings: Staphylococcus aureus
Excerpt: as §1

[14] = test system: SA506 S. aureus ermA positive msrA unknown; experiment: broth dilution MIC, S. aureus SA506; settings: Staphylococcus aureus
Excerpt: as §1

E. coli strains = experiment: MIC against E. coli strains (Table M7); settings: Escherichia coli, ATCC25922, E. coli ATCC 25922
Procedure, shortened: as §2

A. baumannii strains = experiment: MIC against A. baumannii strains (Table M8); settings: Acinetobacter baumannii, BAA747, A. baumannii BAA747-1
E. faecalis strains = experiment: MIC against E. faecalis strains (Table M8); settings: Enterococcus faecalis, E. faecalis 29212
E. coli (MC4100) = experiment: MIC, E. coli MC4100; settings: Escherichia coli, round 2, read-out: MIC
Excerpt: as §1

S. pneumoniae strains = experiment: MIC against S. pneumoniae strains (Tables M7, M8); settings: Streptococcus pneumoniae
Excerpt: CLSI standard procedures for broth dilution MIC determination were used. […] These genotypes can be constitutive or inducible.

S. aureus strains = experiment: MIC against S. aureus strains (Table M7); settings: Staphylococcus aureus
Procedure, shortened: as §2

H. influenzae strains = experiment: MIC against H. influenzae strains (Table M8); settings: Haemophilus influenzae
Procedure, shortened: as §2

K. pneumoniae strains = experiment: MIC against K. pneumoniae strains (Table M8); settings: Klebsiella pneumoniae, K. pneumoniae 10031
[15] = test system: S. aureus (Newman, clinical isolate); experiment: MIC, S. aureus Newman; settings: Staphylococcus aureus, S. aureus (Neuman, clinical isolate), round 2
Excerpt: as §1

[16] = test system: Spn1427 S. pneumoniae ermB positive mefA negative; experiment: broth dilution MIC, S. pneumoniae Spn1427; settings: Streptococcus pneumoniae
Excerpt: as §1

[17] = Spn160 S. pneumoniae ermB unknown mefA positive, read-out: MIC

## CC[C@H]1OC(=O)C(C)(F)C(=O)[C@@H](C)[C@@H](O[C@@H]2OC(C)CC(N(C)C)C2O)[C@](C)(OC)C[C@@H](C)CN(C)[C@H](C)[C@H]2N(CCCCn3cc(-c4nccs4)nn3)C(=O)O[C@]12C (stereo partly shown) [FSM-20705]
[1]
  MIC: 8 µg/mL (≈ 9.39 µM)
[2]
  MIC: 16 µg/mL (≈ 18.8 µM)
[3]
  MIC: 0.125 to 0.25 µg/mL (≈ 0.147 to 0.293 µM)
BS1725 B. subtilis ermC
  MIC: > 32 µg/mL
HI281 H. influenzae
  MIC: > 32 µg/mL
[4]
  MIC: 8 µg/mL (≈ 9.39 µM)
[5]
  MIC: 16 µg/mL (≈ 18.8 µM)
EC107 E. coli ATCC25922
  MIC: > 32 µg/mL
[6]
  MIC: > 32 µg/mL
EC878 E. coli tolC
  MIC: 2 µg/mL (≈ 2.35 µM)
[7]; [17]
  MIC: 0.5 to 1 µg/mL (≈ 0.587 to 1.17 µM)
[8]
  MIC: 8 µg/mL (≈ 9.39 µM)
EC882 E. coli imp
  MIC: 0.25 µg/mL (≈ 0.293 µM)
[9]
  MIC: 16 to 32 µg/mL (≈ 18.8 to 37.6 µM)
[10]
  MIC: > 32 µg/mL
[11]
  MIC: 32 µg/mL (≈ 37.6 µM)
[12]
  MIC: 4 to 16 µg/mL (≈ 4.69 to 18.8 µM)
[13]
  MIC: > 32 µg/mL
[14]
  MIC: > 32 µg/mL

## CC[C@H]1OC(=O)[C@H](C)C(=O)[C@H](C)[C@@H](O[C@@H]2OC(C)CC(N(C)C)C2O)[C@](C)(OC)C[C@@H](C)CN[C@H](C)[C@H]2N(CCCCn3cc(-c4cccc(N)c4)nn3)C(=O)O[C@]12C (stereo partly shown) [FSM-20707]
[1]
  MIC: 0.5 to 1 µg/mL (≈ 0.604 to 1.21 µM)
E. coli strains
  MIC: 4 µg/mL (≈ 4.83 µM)
A. baumannii strains
  MIC: 8 µg/mL (≈ 9.66 µM)
E. faecalis strains
  MIC: 0.25 µg/mL (≈ 0.302 µM)
E. coli (MC4100)
  MIC: 4 µg/mL (≈ 4.83 µM)
[2]
  MIC: 1 µg/mL (≈ 1.21 µM)
[3]
  MIC: 0.0156 to 0.0312 µg/mL (≈ 0.0188 to 0.0377 µM)
BS1725 B. subtilis ermC
  MIC: 8 µg/mL (≈ 9.66 µM)
HI281 H. influenzae
  MIC: 4 µg/mL (≈ 4.83 µM)
[5]
  MIC: 1 to 2 µg/mL (≈ 1.21 to 2.42 µM)
EC107 E. coli ATCC25922
  MIC: 8 µg/mL (≈ 9.66 µM)
S. pneumoniae strains; S. pneumoniae 160, read-out: MIC S. pneumonae (160)
  MIC: 0.125 µg/mL (≈ 0.151 µM)
S. pneumoniae strains; S. pneumoniae 1509, read-out: MIC S. pneumoniae (1509)
  MIC: 1 µg/mL (≈ 1.21 µM)
S. pneumoniae strains; S. pneumoniae 1533, read-out: MIC S. pneumoniae (1533)
  MIC: > 32 µg/mL
S. pneumoniae strains; S. pneumoniae 1537, read-out: MIC S. pneumoniae (1537)
  MIC: > 32 µg/mL
S. pneumoniae strains; read-out: MIC S. pneumoniae (49619)
  MIC: ≤ 0.0625 µg/mL
[6]
  MIC: 32 µg/mL (≈ 38.6 µM)
EC878 E. coli tolC
  MIC: 0.5 µg/mL (≈ 0.604 µM)
[7]
  MIC: 0.0625 to 0.125 µg/mL (≈ 0.0755 to 0.151 µM)
S. aureus strains; ATCC29213, S. aureus ATCC 29213, read-out: MIC S. aureus (ATCC 29213)
  MIC: 1 µg/mL (≈ 1.21 µM)
S. aureus strains; S. aureus 183, read-out: MIC S. aureus (183)
  MIC: > 32 µg/mL
S. aureus strains; S. aureus 506, read-out: MIC S. aureus (506)
  MIC: > 32 µg/mL
S. aureus strains; S. aureus 1708, read-out: MIC S. aureus (1708)
  MIC: 1 µg/mL (≈ 1.21 µM)
S. aureus strains; USA300, S. aureus USA300, read-out: MIC S. aureus (USA300)
  MIC: 4 µg/mL (≈ 4.83 µM)
H. influenzae strains; H. influenzae 49247, read-out: MIC H. influenzae (49247)
  MIC: 0.5 µg/mL (≈ 0.604 µM)
H. influenzae strains; H. influenzae 49766, read-out: MIC H. influenzae (49766)
  MIC: 2 µg/mL (≈ 2.42 µM)
K. pneumoniae strains
  MIC: 2 µg/mL (≈ 2.42 µM)
[8]
  MIC: 0.5 µg/mL (≈ 0.604 µM)
EC882 E. coli imp; Escherichia coli
  MIC: 0.0625 µg/mL (≈ 0.0755 µM)
[9]
  MIC: 1 to 2 µg/mL (≈ 1.21 to 2.42 µM)
[11]
  MIC: 0.5 to 2 µg/mL (≈ 0.604 to 2.42 µM)
[12]
  MIC: 0.25 to 2 µg/mL (≈ 0.302 to 2.42 µM)
[13]
  MIC: > 32 µg/mL
[15]
  MIC: 0.5 µg/mL (≈ 0.604 µM)
[14]
  MIC: > 32 µg/mL

## CC[C@H]1OC(=O)C(C)(F)C(=O)[C@@H](C)[C@@H](O[C@@H]2OC(C)CC(N(C)C)C2O)[C@](C)(OC)C[C@@H](C)CN[C@H](C)[C@H]2N(CCCCn3cc(-c4nccs4)nn3)C(=O)O[C@]12C (stereo partly shown) [FSM-20721]
[1]
  MIC: 16 µg/mL (≈ 19.1 µM)
[2]
  MIC: 16 µg/mL (≈ 19.1 µM)
[3]
  MIC: 0.125 to 0.25 µg/mL (≈ 0.149 to 0.298 µM)
BS1725 B. subtilis ermC
  MIC: > 32 µg/mL
[4]
  MIC: 8 µg/mL (≈ 9.55 µM)
[5]
  MIC: 16 µg/mL (≈ 19.1 µM)
[16]
  MIC: > 32 µg/mL
EC107 E. coli ATCC25922
  MIC: > 32 µg/mL
[6]
  MIC: > 32 µg/mL
EC878 E. coli tolC
  MIC: 1 µg/mL (≈ 1.19 µM)
[7]; [17]
  MIC: 0.5 to 1 µg/mL (≈ 0.597 to 1.19 µM)
[8]
  MIC: 8 µg/mL (≈ 9.55 µM)
EC882 E. coli imp; Escherichia coli
  MIC: 0.25 µg/mL (≈ 0.298 µM)
[9]
  MIC: 8 to 32 µg/mL (≈ 9.55 to 38.2 µM)
[10]
  MIC: > 32 µg/mL
[11]
  MIC: 16 µg/mL (≈ 19.1 µM)
[12]
  MIC: 8 to 16 µg/mL (≈ 9.55 to 19.1 µM)
[13]
  MIC: > 32 µg/mL
[14]
  MIC: > 32 µg/mL
